This passage reports melting point and IC50 results from patent US7906516B2, “Carbonyl compounds” (Merck Patent GmbH, priority 2003, dated 2011).

What is called melting point is the temperature of the solid-liquid transition. By IC50 is commonly meant the concentration that gives 50% inhibition. Low readings indicate inhibition by little substance, high ones a need for much substance.

Chain of TF/FVIIa (P08709 213-466 limits assumed): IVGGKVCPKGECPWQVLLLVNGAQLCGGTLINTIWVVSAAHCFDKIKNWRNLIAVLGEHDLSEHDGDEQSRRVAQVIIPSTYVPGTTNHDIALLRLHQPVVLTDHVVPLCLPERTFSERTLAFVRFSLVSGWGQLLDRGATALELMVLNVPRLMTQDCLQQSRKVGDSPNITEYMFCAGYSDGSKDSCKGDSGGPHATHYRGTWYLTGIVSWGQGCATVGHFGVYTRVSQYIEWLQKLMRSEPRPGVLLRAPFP
Chain of TF/FVIIa (P08709 61-212 partner limits assumed): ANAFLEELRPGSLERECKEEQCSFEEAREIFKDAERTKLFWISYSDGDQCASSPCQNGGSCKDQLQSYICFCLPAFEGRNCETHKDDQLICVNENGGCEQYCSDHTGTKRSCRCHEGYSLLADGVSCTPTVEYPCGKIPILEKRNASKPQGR
Chain of TF/FVIIa (P13726 33-295 partner): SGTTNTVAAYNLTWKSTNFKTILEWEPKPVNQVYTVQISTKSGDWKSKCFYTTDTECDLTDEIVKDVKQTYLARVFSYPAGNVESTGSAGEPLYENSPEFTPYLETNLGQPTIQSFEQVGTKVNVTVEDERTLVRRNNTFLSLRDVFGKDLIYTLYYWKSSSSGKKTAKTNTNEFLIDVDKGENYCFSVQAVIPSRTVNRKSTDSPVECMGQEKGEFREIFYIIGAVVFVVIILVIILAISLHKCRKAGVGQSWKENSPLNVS
Chain of FXa (P00742 235-488 limits assumed): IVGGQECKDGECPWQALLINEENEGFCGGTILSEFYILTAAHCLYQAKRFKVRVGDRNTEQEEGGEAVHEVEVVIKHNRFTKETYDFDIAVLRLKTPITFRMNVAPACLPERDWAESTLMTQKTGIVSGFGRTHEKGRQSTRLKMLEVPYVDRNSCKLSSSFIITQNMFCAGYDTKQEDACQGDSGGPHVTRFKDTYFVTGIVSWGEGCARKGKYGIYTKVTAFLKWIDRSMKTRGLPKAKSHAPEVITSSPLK
Chain of FXa (P00742 41-179 partner limits assumed): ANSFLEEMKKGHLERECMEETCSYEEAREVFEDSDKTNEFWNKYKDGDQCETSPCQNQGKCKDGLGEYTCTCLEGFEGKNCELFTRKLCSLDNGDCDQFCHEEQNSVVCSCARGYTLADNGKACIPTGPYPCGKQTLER

Tested on in the first data set: not given
Assay: not given
`CO[C@@H]1C[C@H](C(=O)Nc2ccc(N3CCOCC3=O)cc2)N(C(=O)Nc2ccc(Cl)cc2)C1` returned a melting point of 133 °C.

For `CC(C)C(=O)O[C@@H]1C[C@H](C(=O)Nc2ccc(N3CCOCC3=O)cc2)N(C(=O)Nc2ccc(Cl)cc2)C1`, the melting point came out at 129 °C. `O=C1C[C@H](C(=O)Nc2ccc(N3CCOCC3=O)cc2)N(C(=O)Nc2ccc(Cl)cc2)C1` yielded a melting point of 154 °C. The compound `O=C(Nc1ccc(N2CCOCC2=O)cc1)[C@H]1C[C@@H](O)CN1C(=O)/C=C/c1ccc(Cl)s1` came in with a melting point of 151 °C. Regarding `O=C(Nc1ccc(N2CCOCC2=O)cc1)[C@H]1C[C@@H](O)CN1C(=O)Cc1ccc(Cl)cc1`, the melting point was 141 °C. On the same count and under the same terms, as for `CCO[C@@H]1C[C@H](C(=O)Nc2ccc(N3CCOCC3=O)c(C)c2)N(C(=O)Nc2ccc(Cl)cc2)C1`, the figure is 117 °C; as for `O=C(NC1CCC(N2CCOCC2=O)CC1)[C@H]1C[C@@H](O)CN1C(=O)Nc1ccc(Cl)cc1` (stereo partly shown), 245 °C. `O=C(Nc1ccc(N2CCOCC2=O)cc1)[C@H]1C=CCN1C(=O)Nc1ccc(Cl)cc1`: the melting point was determined as 245 °C.

Consider `O=C(Nc1ccc(N2CCOCC2=O)cc1)[C@H]1CCCN1C(=O)c1ccc(Cl)s1` [AB1, N-[4-(3-oxomorpholin-4-yl)phenyl]-(R)-1-(5-chlorothiophene-2-carbonyl)-pyrrolidine-2-carboxamide], for which the melting point was 195 °C.

In turn, `O=C(Nc1ccc(N2CCOCC2=O)cc1)[C@H]1CCCN1C(=O)Nc1ccc(Cl)cc1` [Compound A1, 1-N-[(4-chlorophenyl)]-2-N-{[4-(3-oxomorpholin-4-yl)phenyl]}-(R)-pyrrolidine-1,2-dicarboxamide] came in with a melting point of 227.6 °C.

Another data set concerns the target TF/FVIIa (Homo sapiens, UniProt P08709). Kind of data set: TF/factor VIIa inhibition (TF/FVIIa-IC50). The class given is biochemical.
`O=C(Nc1ccc(N2CCOCC2=O)cc1)[C@H]1CCCN1C(=O)c1ccc(Cl)s1` [AB1, N-[4-(3-oxomorpholin-4-yl)phenyl]-(R)-1-(5-chlorothiophene-2-carbonyl)-pyrrolidine-2-carboxamide] came in with an IC50 of 3900 nM. As to `O=C(Nc1ccc(N2CCOCC2=O)cc1)[C@H]1CCCN1C(=O)Nc1ccc(Cl)cc1` [Compound A1, 1-N-[(4-chlorophenyl)]-2-N-{[4-(3-oxomorpholin-4-yl)phenyl]}-(R)-pyrrolidine-1,2-dicarboxamide], it took 23 nM to reach half-maximal inhibition (IC50).

Another data set concerns the target FXa (Homo sapiens, UniProt P00742). Kind of data set: Factor Xa inhibition (FXa-IC50). It counts as biochemical.
In turn, `O=C(Nc1ccc(N2CCOCC2=O)cc1)[C@H]1COCN1C(=O)Nc1ccc(Cl)cc1` [Compound A2, 3-N-[(4-chlorophenyl)]-4-N-{[4-(3-oxomorpholin-4-yl)phenyl]}-(R)-oxazolidine-3,4-dicarboxamide] returned an IC50 of 27 nM.
